Structure (SMILES)	melting point
CCc1nc2cc(C(=O)O)c(Cl)cc2n1-c1ccc(CCNC(=O)NS(=O)(=O)c2ccc(C)cc2)cc1	145 to 150 °C
CC(=O)OC1CSC(Oc2cncc(-c3cccnc3)c2)C(OC(C)=O)C1OC(C)=O (configuration not stated)	149 °C
C[C@@H](NC(=O)[C@H](Cc1ccc(OC(C)(C)C)cc1)NC(=O)OC(C)(C)C)C(=O)O	186 to 187 °C
COC(=O)c1cccc(-c2cccc(N)c2)c1	63 to 65 °C
CCCc1c(CSc2nnc(SCCCC(=O)O)s2)ccc(C(C)=O)c1O	75 to 78 °C
ON=C1CCCCC12OCCO2	97 to 98 °C
CNS(=O)(=O)c1cc(OC)c(OC)c(C(=O)NCC2CCCN2CC2=CCCCC2)c1 (configuration not stated)	120 to 121 °C
Cc1oc2c(NC(=O)c3c(Cl)cccc3Cl)cccc2c1COC(=O)CCCC(=O)NC(P(=O)(O)O)P(=O)(O)O	190 to 195 °C
CCCCS(=O)(=O)NCCc1nc(-c2ccc(-c3ccccc3)cc2)c[nH]1	168 °C
O=c1c2cc(Cl)ccc2nc2n1CCC2=Cc1ccccc1	225 to 227 °C
CCCNC(=O)C(O)C1(O)CCC2C3CCC4=CC(=O)C=CC4(C)C3C(O)CC21C (configuration not stated)	251 to 253 °C
CCOC(=O)c1cn2c3c(c(F)c(F)cc3c1=O)OCC2CO (configuration not stated)	268 to 270 °C
CCOC(=O)CCCNC(=O)Cn1c(-c2ccc(Cl)cc2)nc2cccnc21	169 to 171 °C
CCOc1ccc(-c2nc(-c3cccc(C(N)=NO)n3)cs2)cc1OCC	218 to 220 °C
Cc1nc2n(c(=O)c1CCN1CCC(C(=O)c3ccc(F)cc3)CC1)CCS2	166 °C
CCCn1c(=O)c2c(nc(/C=C/c3ccc(OCC)c(OCC)c3)n2C)n(CCC)c1=O	174 °C
CSCC1COCc2nc3c(N)nc4ccccc4c3n21 (configuration not stated)	105 to 108 °C
FC(F)(F)c1ccc2nc(-c3csc(Nc4ncccc4Cl)n3)[nH]c2c1	207 to 208 °C
COc1ccc(N(C)c2nccc(-c3ccncc3)n2)cc1	124 to 126 °C
CCC1(CC)c2cc(-c3nc4ccccc4s3)ccc2-c2ccc(N(c3ccc(Oc4ccc(N)cc4)cc3)c3ccc(Oc4ccc(N)cc4)cc3)cc21	192 to 194 °C
CC(C)c1cccc(-c2ccc(F)cc2)c1OCCOc1ccc(C(=O)C(=O)O)cc1	123 to 125 °C
CC1(C)OC(c2ccc(S(C)(=O)=O)cc2F)=C(c2ccccc2)C1=O	175 to 176 °C
Cn1cc(-c2cccc(C(F)(F)F)c2)c(=O)c(-c2cccc(S(C)(=O)=O)c2)c1	180 to 183 °C
CC(C)N(CCOc1ccc(NC(=O)c2c[nH]c3c2C(=O)CCC3)cc1)C(C)C	140 to 141 °C
CNC(=O)NC1CCC(=O)c2ccccc21 (configuration not stated)	220 to 223 °C

Structure (SMILES)	melting point
Cc1nc(NC(=O)c2cnn3c(C(F)(F)F)cc(-c4ccc(Cl)cc4)nc23)sc1S(=O)(=O)NC(C)(C)CO	274 °C
CN(Cc1cccc(Cl)c1)c1ccc(C(N)=O)nc1	178 to 183 °C
O=S1(=O)NC(C2CCCCC2)Nc2ccc(-c3ccccc3Cl)cc21 (configuration not stated)	233 to 236 °C
O=[N+]([O-])c1ccc(Cl)c(C(=S)Nc2ccc(Oc3ncc(C(F)(F)F)cc3Cl)cc2)c1	186 to 187 °C
CCOC(=O)N1CCC2(CC1)C(=O)OC(=O)N2c1ccccc1	211 °C
Cc1ccc2c(c1)CN(C)C(c1ccc(C(C)(C)C)cc1)C2 (configuration not stated)	106 to 108 °C
CCn1cc(C(=O)NC2CC2c2ccccc2)c(=O)c2cnc(N3CCCC3)nc21 (configuration not stated)	199 to 201 °C
Cc1cc(NC2=NCCN2)n(-c2ccc(F)cc2)n1	213 to 215 °C
Cn1c(=O)c(S(C)(=O)=O)c(N2CCN(C(=O)c3cccs3)CC2)c2ccccc21	224 °C
CC1(C)CC(N(CCCCO)S(C)(=O)=O)c2cc(OCc3ccccc3)ccc2O1 (configuration not stated)	113 to 115 °C
CCC(C1OC(=O)c2ccccc21)[N+](=O)[O-] (configuration not stated)	90 to 92 °C
CSc1nc(=O)n(CCO)cc1F	161 to 162 °C
O=C(O)C1=Cc2cc(Cl)c(Oc3cccc(Cl)c3)cc2OC1C(F)(F)F (configuration not stated)	174 to 176 °C
O=C(O)c1cc2cc3c(cc2c2cc(OCc4ccccc4)ccc12)OCO3	263 to 265 °C
CC(C)(C)C(=O)C=C(c1ccc(Cl)cc1)S(=O)(=O)c1ccccc1	135 to 136 °C
COC(=N)N1CCC(c2nn(-c3ccccc3)c3ccccc23)CC1	80 to 83 °C
N#CC(C#N)=C1C=C(C=Cc2ccc(N)cc2)OC(C=Cc2ccc(N)cc2)=C1	249 °C
Cc1c(C)c(N2CCN(c3ccc(C(F)(F)F)cc3)CC2)c(C)c2c1OC(C)(C)C2O (configuration not stated)	212 to 214 °C
COCCn1cc(C(=O)O)c2c(C(=O)N3CCOCC3)cccc21	201 to 203 °C
COc1cccc(C(=O)c2cc3ccc(OC)cc3o2)c1	63 to 65 °C
Cc1cccc(-c2nc(-c3cccc(C)c3)nc(-c3cccc(C)c3)n2)c1	151 to 152 °C
COc1cccc(Nc2n[nH]c(N)c2C#N)c1	177 to 180 °C
COc1ccc(OCCCCCBr)c(C2Sc3cc(Cl)ccc3N(C)C2=O)c1 (configuration not stated)	105 to 106 °C
CN[C@@H](C)[C@@H]1CCN(c2c(F)cc3c(=O)[nH]c(=O)n(C4CC4)c3c2OC)C1	162 to 164 °C
O=C(O)C1Cc2c(c(Cl)cc3c(-c4cccc(F)c4)noc23)O1 (configuration not stated)	209 to 210 °C

Structure (SMILES)	melting point
CC(=O)c1cc(Cl)c(N=C=O)c(Cl)c1	138 to 140 °C
O=C(c1ccccc1F)c1cc(Cl)ccc1C=CCN1C(=O)c2ccccc2C1=O	117 °C
NC(=O)c1cn(Cc2ccccc2Cl)nn1	155 to 158 °C
COCCNC(=O)C(NC(=O)OCc1ccccc1)c1ccc2c(c1)CCO2 (configuration not stated)	90 to 110 °C
CC1(C)CCc2c(N3CCSCC3)nc3sc4c(NCCCN5CCCC5=O)ncnc4c3c2C1	219 to 221 °C
NC(=O)N1c2ccccc2C=C(Br)c2ccccc21	168 to 170 °C
COc1cccc(OC)c1-c1cc(C(=O)NC2(C(=O)O)C3CC4CC(C3)CC2C4)nn1-c1ccc(NC=O)c2ccccc12 (configuration not stated)	270 °C
CCc1cc(/C=C/C(N)=O)ccc1Cl	152 to 153 °C
CN(C)c1cccc(OC(=O)NC2C(=O)N(CCC3C4CC5CC(C4)CC3C5)c3ccccc3N(c3ccccc3)C2=O)c1 (configuration not stated)	188 to 189 °C
CS(=O)(=O)c1ccc(-n2nc(-c3ccc(F)cc3)cc2C(F)(F)F)cc1	158 to 160 °C
Cc1cc(C)c2c(n1)Nc1cc(C)c(C)cc1N(C)C2=O	225 to 227 °C
CC(=O)Oc1ccccc1C(=O)N[C@@H]1CCCC[C@@H]1O[N+](=O)[O-] (relative stereo)	143 to 145 °C
O=C(O)c1cnc2ccc(Cl)cc2c1-c1ccccc1	269 to 270 °C
CN(c1ccccc1)c1nc(N(C)c2ccccc2)c2ccsc2n1	85 to 87 °C
O=C(O)c1cc(Cl)ccc1SSc1ccc(Cl)cc1C(=O)O	320 to 324 °C
CCCCCCCCCCCCCCCCCCNS(N)(=O)=O	105 to 107 °C
O=C(Cc1ccccc1)c1cc(O)c(O)c([N+](=O)[O-])c1	181 to 182 °C
Cc1cc(I)ccc1-c1cccc(C(N)=O)c1	138 to 141 °C
O=c1[nH]c2cccc(Br)c2c(=O)o1	280 to 281 °C
Cc1cc(O)nc2[nH]nc(C)c12	233 to 235 °C
CN(C)c1cccc(-c2cccc(-c3ccnc4c(C(=O)c5cccs5)cnn34)c2)c1	167 to 169 °C
COC(=O)CCn1c(=O)n(CCN2CCN(c3cccc(Cl)c3)CC2)c(=O)c2cscc21	150 °C
CC(C)OC(=O)N1c2cncnc2NC(=O)C1C (racemic)	160 to 162 °C
COc1ccc(C(=O)N2c3ccc(OC)cc3CC2C(=O)O)cc1 (configuration not stated)	151 to 152 °C
CN1CCN(C(=O)Oc2ccc([N+](=O)[O-])cc2)CC1	134 to 135 °C

Structure (SMILES)	melting point
CCOC(=O)Cc1cccc(Oc2ccccc2)c1NC(C)=O	106 to 107 °C
O=c1c2cnn(Cc3ccccc3)c2nc2n1CCS2	180 to 182 °C
CCC12CCC3c4ccc(OC)cc4C(C)CC3C1CCC2=O (configuration not stated)	115 to 123 °C
CCOCCCN(C)Cc1ccc(NC(=O)C2=Cc3cc(-c4ccc(OCC)cc4)ccc3N(C)CC2)cc1	129 to 131 °C
Cc1cc(F)cc(C=O)c1O	49 to 52 °C
COc1ccc2c(c1)CCC1=C2CCC2(CC(C)C)C(=O)CC=C12 (configuration not stated)	57 to 60 °C
CC(Oc1ccnc2cc(Cl)ccc12)c1ccccc1F (configuration not stated)	53 to 54 °C
[N-]=[N+]=NCCCc1cn(S(=O)(=O)c2c(Cl)nc3sccn23)c2ccc(F)cc12	84 to 86 °C
CCCCCN1OCCN(c2ccc(Cl)c(Cl)c2)C1=O	< 40 °C
CC(C)[C@H](NC(=O)OCc1csc(N2CCCC2)n1)C(=O)N[C@@H](Cc1ccccc1)[C@@H](O)C[C@H](Cc1ccccc1)NC(=O)OCc1cncs1	165 to 167 °C
CCN(CC)C(=O)n1ccc(S(=O)(=O)c2ccc(Br)cc2C(F)(F)F)n1	62 to 65 °C
O=C(O)CCCS(=O)(=O)NC(=O)CCC(F)(F)C(F)(F)C(F)(F)C(F)(F)C(F)(F)C(F)(F)F	175 to 180 °C
O=C(N[C@@H](Cc1ccc2ccccc2c1)C(=O)O)OCc1ccccc1	109 to 111 °C
CCCCS(=O)(=O)Nc1nc(CN2CCN(C(c3ccccc3)c3ccccc3)CC2)cs1	185 to 187 °C
Cc1cc(COc2ccc(C(N)=O)cc2)c2c(N)c(C(N)=O)sc2n1	> 250 °C
c1ccc(-c2cc3n(n2)CCNC3CC2CCCCC2)cc1 (racemic)	128 to 130 °C
CC(C)(C)OC(=O)c1sc(Nc2ccccc2)c2c1CCc1cnoc1-2	148 to 149 °C
CN(C)CCCN(C(=O)Cc1ccccc1)c1ccccc1SCc1ccc(Cl)cc1	92 to 94 °C
O=C1CCC(N2C(=O)c3ccc(CNC(=O)c4ccccn4)cc3C2=O)C(=O)N1 (configuration not stated)	212 to 214 °C
Cc1cc(N=C2NCCN2)cc(NS(C)(=O)=O)c1	54 to 77 °C
CCN1C(=O)C(C(=O)Nc2cccc(C(=O)Nc3ccc(I)cc3)c2)c2cc(C(C)=O)ccc21 (configuration not stated)	205 to 210 °C
Fc1ccc2[nH]cc(C3=CCC4(CC3)OCCO4)c2c1	153 to 155 °C

Reference: a melting point compilation (Tetko et al.; mined from patent text by program, amines drawn as free bases though some values may be those of a salt)
